Assay results taken from patent US11767289B2, “Methods and compositions for pest control” (VMI Foundation, priority 2010, dated 2023).

Assay: Solvent for extracting tyramides from dissected tissue
Type: physicochemical
Settings: extraction of dissected tissue
Protocol: Mature male […] (winged male sexuals) were used in all experiments. Maturity could only be determined upon dissection and determination of whether or not the male's testes were degenerated. This is the key indicator of maturity. See Ball and Vinson, Int. J. Insect Morphol. Embryol. 13:283-294 (1984) for a description and figure of the fire ant male genitalia. Males were discarded if their testes were not degenerated. Dissection of the male reproductive system was carried out in a drop of water. The entire system included pairs of degenerated testes, seminal vesicle, accessory glands, and the single external genitalia. After dissection of the entire system the three sections were further dissected: A) degenerated testes and seminal vesicle; B) accessory glands; and C) external genitalia. […]

suitability of methylene chloride as solvent: poor solvent
SMILES: CC(=O)NCCc1ccc(O)cc1 [Compound 1, acetyl tyramide]
